# From patent publication US20100040568A1, “Steroidal compounds as melanogenesis modifiers and uses thereof” (SkinMedica, Inc., priority 2008, published 2010)
# Entries after “also recorded” stand apart in the source; their conditions may differ.
# Assays:
# melan-a cells = test: CellTiter 96 aqueous nonradioactive cell proliferation assay (cell viability); assay type: cell-based, murine; details: concentrations below 20 μM
# Procedure: The IC50 value for inhibition of cellular melanin synthesis for conessine was determined by culturing melan-a cells with various concentrations of conessine for 72 hours. Briefly, melan-a cells were plated at 5×10^4 cells per well in 1 ml of culture media in 24-well plates the day before adding conessine. Conessine was added at the indicated final concentrations. DMSO was used as a negative control. Cells were harvested after 72 hours of incubation, and spectrophotometric melanin assay was performed on cell pellets. The melanin contents were normalized to the total amount of protein. Cell viability was determined by using the CellTiter 96 aqueous nonradioactive cell proliferation assay.
# [1] = tested on: Lamp-1 (lysome-associated membrane protein 1); test: Level of Lamp-1 in melan-a cells; assay type: cell-based, murine
# Procedure: Melan-a cells were incubated with various concentrations of conessine for 72 hours. Cell lysates were prepared and separated by 7.5% sodium dodecyl sulfate-polyacrylamide gel and transferred to Immobilon-P membranes. Tyrosinase gene family proteins were detected with antibodies against each protein. […] The effect of conessine on the level of Lamp-1 in melan-a cells was examined. A common lineage among the melanosomes and lysosomes is well accepted. Lamp-1 (lysome-associated membrane protein 1) is a lysosome marker. […] Thus, conessine treatment likely results in decreased degradation of both Lamp-1 and tyrosinase gene family proteins (FIG. 12d), thus unexpectedly acting as a melanogenesis […].
# [2] = tested on: Asian skin equivalent (MEL-A); test: MelanoDerm pigmentation assay, Asian skin equivalent; assay type: cell-based, human
# From the text: MelanoDerm™, made by MatTek Corp., is a viable reconstituted three-dimensional human skin equivalent containing normal melanocytes and keratinocytes that are derived from African-American (MEL-B), Asian (MEL-A) or Caucasian (MEL-C) donors. Both MEL-A and MEL-B tissues were used in the current study, and they were maintained in the NMM-113 medium as recommended by the manufacturer.
# Tissues were taken out on Days 13 and 16 for the various assays. 30% ethanol: 70% propylene glycol was used as a negative control and the well-known pigmentation inhibitor, arbutin (at concentration of 3 mg/ml), was used as a positive control.
# The experiments were repeated twice on both MEL-A and MEL-B tissues from different lots to make sure that the results are reproducible (study 1 or 2). For each experiment, six tissues were treated with conessine, and six were treated with […] (30% ethanol: 70% PEG) or arbutin if applicable. For MEL-B, on day 10, three tissues under each treatment condition were taken out, and one was used for histological studies and the other two were used for the melanin assay. The same protocol was followed with the MEL-B samples after 13 days' treatment and MEL-A after either 13 or 16 days' treatments.
# Procedure 1: the effects of conessine on melanin synthesis in MEL-A or B were evaluated by light microscopy (views from the top surface of the tissue). Procedure 2: the distribution of melanin in the treated-MEL-A or B was accessed by image analysis using Fontana-Masson stained histological sections (views from the side of the tissue).
# MelanoDerm™, made by MatTek Corp., is a viable reconstituted three-dimensional human skin equivalent containing normal melanocytes and keratinocytes that are derived from African-American (MEL-B), Asian (MEL-A) or Caucasian (MEL-C) donors. It has human skin-like structure and undergoes progressive tissue darkening over the course of 2-3 weeks. MelanoDerm™ provides a useful in vitro means for evaluation of agents that modulate pigmentation. Human skin equivalent models such as MelanoDerm™ provide an alternative to clinical and animal testing for evaluating the effects of putative bioactive compounds on mammalian pigmentation. MelanoDerm™ is considered a more physiologically relevant model than melanocytes alone or melanocyte-keratinocyte co-cultures. Both MEL-A and MEL-B tissues were used in the current study, and they were maintained in the NMM-113 medium as recommended by the manufacturer. In this model, substantial accumulation of newly synthesized melanin occurs over a two to three week period.
# Conessine and Licorice extract were dissolved in 30% ethanol: 70% propylene glycol (PEG) to a final concentration of 0.036% (0.36 mg/ml). A 25 μl aliquot of each compound was applied topically to the Asian MelanoDerm™ tissue (MEL-A) on Days 0, 1, 3, 6, 8, 10 and 13. The MelanoDerm™ tissues were fed every other day with 5 ml fresh NMM-113. Prior to each application, the tissues were washed with 1 ml PBS to remove any residual test compound. Tissues were fixed on Days 13 and 16 for microscopic analysis and histological evaluation. In addition, duplicate tissues were frozen on Days 13 and 16 for melanin assay. 30% ethanol: 70% PEG was used as negative control. Cell viability was measured in accordance with the manufacturer's instructions using the MTT assay kit (MatTek Corp., Ashland, Mass. 01721). One MEL-A tissue from each condition was harvested on day 2 and 7, and MTT assay was performed. Similar experiments were performed on MEL-B.
# Quantitative melanin assay was performed on the treated MEL-A tissues.
smiles,measurement,setting,value
"CC1C2CCC3C4CC=C5CC(N(C)C)CCC5(C)C4CCC32CN1C (centres unmarked) [Compound 1, Conessine]",cytotoxicity,melan-a cells,did not exhibit cytotoxicity
same,cellular level of Lamp-1,[1],increases cellular level of Lamp-1
same,decreased melanin content (quantitative melanin assay),"[2]; 0.036% topical, both 13 and 16 days, compared to vehicle-treated",30-40%
same,"melanin content compared to the vehicle-treated tissues (Fontana-Masson sections, quantitative analysis)","[2]; 0.036% topical, day 13, 8 sections",49.90%
same,"melanin content compared to the vehicle-treated tissues (Fontana-Masson sections, quantitative analysis)","[2]; 0.036% topical, day 16, 8 sections",42.31%
same,effectiveness as depigmenting agent (comparison),"[2]; arbutin 3 mg/ml, conessine and licorice 0.36 mg/ml, extract 1:50",more effective than either Licorice extract or arbutin
same,pigmentation by light microscopy,"[2]; conessine 0.036% (0.36 mg/ml), extract diluted 1:50, 25 μl topical, days 13 and 16",strikingly decreased; also recorded: becomes lighter
same,melanin content by Fontana-Masson staining,"[2]; conessine and licorice 0.36 mg/ml, extract diluted 1:50, 25 μl topical, days 13 and 16",significant decrease in the relative melanin content
